Measurements reported in patent US20160051560A1, “TREATMENTS INVOLVING ESLICARBAZEPINE OR ESLICARBAZEPINE ACETATE” (BIAL - PORTELA & Cª, S.A., priority 2013, published 2016).

Test system: patients with acute manic (including mixed) episode, bipolar I disorder
Test: Study BIA-2093-204: 3-week double-blind, randomised, placebo-controlled, fixed multiple dose study in acute mania
Assay type: in vivo, human
Settings: for YMRS score absolute change from V2 (1 Day) to V7 (21 Days), Mean ± SD / YMRS score absolute change from V2 (1 Day) to V7 (21 Days), Median (range): ITT
Protocol: Two 3-week multicentre, double-blind, randomised, placebo-controlled studies in acute mania (study BIA-2093-203: dose titrated by response, eslicarbazepine acetate (ESL) 600-1800 mg or 800-2400 mg, once-daily; study BIA-2093-204: fixed doses of 600, 1200 and 1800 mg, once-daily) were followed by a recurrence prevention study consisting of a 2-week open-label period (900 mg, once-daily) continued by a double-blind, parallel-group, fixed dose (300, 900 and 1800 mg, once-daily) period for a minimum of 6 months. The primary endpoint was change in Young Mania Rating Scale (YMRS) in studies BIA-2093-203 and BIA-2093-204, and the proportion of no worsening patients in the Clinical Global Impressions-Bipolar Version (CGI-BP) in study BIA-2093-205.
Study BIA-2093-204 (EudraCT No 2005-002133-13) followed a multicentre, double-blind, randomised, parallel-group, placebo-controlled, fixed multiple dose design. This study was conducted at 25 study centres in Europe, South Africa and South America. Patients were randomised (1:1:1:1) to one of the following treatment groups: (1) ESL 1800 mg QD, (2) ESL 1200 mg QD, (3) ESL 600 mg QD, and (4) Placebo QD. The visit schedule in study BIA-2093-204 was similar to that of study BIA-2093-203. […] Patients also had the option of entering Study BIA-2093-205.
Studies BIA-2093-203 and BIA-2093-204 enrolled patients with ages ≧18 years, currently displaying an acute manic (including mixed) episode and with a documented diagnosis of bipolar I disorder according to the DSM-IV criteria (2). Eligible patients should have a Young Mania Rating Scale (YMRS) total score ≧20, with symptoms of the current manic episode starting within two weeks prior to randomization. Patients were excluded if they had history of schizophrenia or schizoaffective disorder, psychotic features or rapid cycling. Patients were also excluded if they were treated with carbamazepine, oxcarbazepine or a depot-neuroleptic. Previous treatment with ESL or history of unresponsiveness, intolerance or hypersensitivity to other dibenzazepine compounds (carbamazepine, oxcarbazepine or licarbazepine) also constituted criteria for exclusion. Patients with clinical relevant risk of harm to self or others and history of substance abuse were also excluded. Women were excluded if they were pregnant or breast-feeding, or if of childbearing potential they were unable to use double-barrier contraception.
The following validated instruments were used: YMRS (20), the Clinical Global Impressions-Bipolar Version (CGI-BP) scale (21) and the Montgomery-Åsberg Depression Rating Scale (MADRS) (22). The YMRS score is the sum of 11 scoring items, ranging from 0 to 60 points; higher scores indicate higher mania symptomatology (20). The CGI-BP scale measures severity and treatment-related improvement in mania, depression and overall illness categories. It comprises 3 scales: severity of illness (1—normal to 7—very severely ill, in which 3—mildly ill was used as cut-off value for statistical analysis), change from preceding phase and worst phase (1—very much improved to 7—very much worse, and 8—not applicable) (21). The MADRS score is calculated as the sum of the 10 scoring items, ranging from 0 to 60 points: higher scores indicate higher depression symptomatology (22).
The primary efficacy endpoint for acute mania studies (BIA-2093-203 and BIA-2093-204) was the change in YMRS total score from baseline until the end of the 3-week treatment period. Investigators administered the YMRS at each visit. Secondary efficacy variables based on the YMRS score included responder rate (proportion of patients with ≧50% improvement or <12 points in the YMRS score), change in YMRS total score for each visit, proportion of patients in full remission (YMRS score <12), and time to full remission. The investigators completed CGI-BP in all visits and the test scores in the different categories were considered as secondary endpoints. […]

[1] = ESL 1200 mg, n = 9, only study 204
[2] = ESL 1800 mg, n = 10, only study 204

## CC(=O)O[C@H]1Cc2ccccc2N(C(N)=O)c2ccccc21 [ESL, (S)-10-acetoxy-10,11-dihydro-5H-dibenz[b,f]azepine-5-carboxamide]
ESL 600 mg QD, n = 8
  YMRS score absolute change from V2 (1 Day) to V7 (21 Days), Mean ± SD: −16.9 ± 2.8
  YMRS score absolute change from V2 (1 Day) to V7 (21 Days), Median (range): −17.5 (−20.0, −12.0)
ESL 1200 mg QD, n = 9
  YMRS score absolute change from V2 (1 Day) to V7 (21 Days), Mean ± SD: −16.7 ± 9.1
  YMRS score absolute change from V2 (1 Day) to V7 (21 Days), Median (range): −15.0 (−35.0, −4.0)
[1]
  Any Adverse Events: 9 (100.0) Number (%) of patients
  Diarrhoea: 0 (0.0) Number (%) of patients
  Dizziness: 2 (22.2) Number (%) of patients
  Headache: 5 (55.6) Number (%) of patients
  Nausea: 1 (11.1) Number (%) of patients
  Paraesthesia oral: 1 (11.1) Number (%) of patients
  Somnolence: 1 (11.1) Number (%) of patients
  Vomiting: 2 (22.2) Number (%) of patients
ESL 1800 mg QD, n = 9
  YMRS score absolute change from V2 (1 Day) to V7 (21 Days), Mean ± SD: −11.3 ± 10.9
  YMRS score absolute change from V2 (1 Day) to V7 (21 Days), Median (range): −15.0 (−26.0, 7.0)
ESL 1800 mg group
  mean change in YMRS total scores from screening to V7: −11.3
  patients in full remission at the end of the 3-week treatment period: 33.3%
[2]
  Any Adverse Events: 10 (100.0) Number (%) of patients
  Diarrhoea: 0 (0.0) Number (%) of patients
  Dizziness: 4 (40.0) Number (%) of patients
  Headache: 1 (10.0) Number (%) of patients
  Nausea: 3 (30.0) Number (%) of patients
  Paraesthesia oral: 2 (20.0) Number (%) of patients
  Somnolence: 3 (30.0) Number (%) of patients
  Vomiting: 2 (20.0) Number (%) of patients
